Common to all, as to assay: inhibition of tumour cell growth, NCI panel, 48 h
The test system of assay [1] is SK-MEL-2 melanoma.
Assay [2] has as its system U251 CNS.
In assay [3] the test system is MOLT-4 leukemia.
Assay [4] relates to HCC-2998 colon.
The subject of assay [5] is HT29 colon.
Assay [6] concerns HL-60(TB) leukemia.
Assay [7] concerns PC-3 prostate.
Assay [8] deals with COLO 205 colon.
Assay [9] relates to 786-0 renal.
Assay [10] concerns CAKI-1 renal.

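Assay format: 96-well plates, 48-hour exposure. Abbreviation: GI50, concentration required for 50% inhibition of growth. TGI marks complete inhibition of growth.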 A value given as a limit tells only on which side of the number the result lay.

`COc1ccc2c(c1)C(=O)c1c-2n(CCCCl)c(=O)c2cc(N(C)C)ccc12`: the GI50 in assay [1] was more than 100 µM; in assay [2] it was 23.1 µM; in assay [3], more than 100 µM; in [4], more than 100 µM; in assay [5] it was more than 100 µM; in assay [6], more than 100 µM. In addition, the GI50 in assay [7] was 34.5 µM; in [8], more than 100 µM; in assay [9], 33.1 µM; in [10], 94.6 µM. The TGI in assay [1] was more than 100 µM; in assay [2], 84.2 µM; in assay [3] it was more than 100 µM; in assay [4] it was more than 100 µM; in assay [5], more than 100 µM; in assay [6], more than 100 µM. In addition, the TGI in assay [7], in assay [8], in assay [9] and in assay [10] was more than 100 µM each time.

Consider `CC12CCC(O)CC1CCC1C2CCC2(C)C(C3=CC(=O)OC3)CCC12` (stereo not drawn), for which the GI50 in assay [1] was 7.49 µM; in [2], 2.62 µM; in [3], more than 100 µM; in [4], more than 100 µM; in assay [5], more than 100 µM; in [6], more than 100 µM. The GI50 was more than 67.4 µM in [7], more than 100 µM in assay [8], 22 µM in [9] and more than 55.7 µM in [10]. In addition, the TGI is 29.8 µM in [1]; 10.1 µM in assay [2]; more than 100 µM in [3]; more than 100 µM in assay [4]; more than 100 µM in assay [5]; more than 100 µM in assay [6]. Also, the TGI in assay [7] is more than 100 µM; in assay [8], more than 100 µM; in [9], 65.2 µM; in [10] it was more than 100 µM.

`Cc1[nH]nc(C(=O)Nc2n[nH]c3ccccc23)c1[N+](=O)[O-]`: the GI50 in assay [1] was more than 100 µM; in assay [2] it was more than 100 µM; in assay [3] it was more than 62.5 µM; in [4], more than 100 µM; in assay [5], more than 100 µM; in assay [6] it was more than 63 µM. The GI50 in assay [7] was more than 100 µM; in assay [8], 63.4 µM; in assay [9], more than 100 µM; in [10] it was more than 100 µM. The TGI in assay [1] was more than 100 µM; in [2] it was more than 100 µM; in assay [3], 97.7 µM; in [4] it was more than 100 µM; in assay [5], more than 100 µM; in [6] it was more than 96.1 µM. In addition, the TGI in assay [7], in assay [8], in assay [9] and in assay [10] was more than 100 µM each time.

As to `COc1cccc2c1C(=O)c1c(O)c3c(c(O)c1C2=O)C[C@@](O)(/C(C)=N\O)C[C@@H]3OC1CC(N)C(O)C(C)O1` (stereo partly drawn), the TGI in [1] came out at 2.48 µM; in [2], 7.73 µM; in assay [3], 1.55 µM; in assay [4], 3.04 µM; in [5], 13.2 µM; in assay [6], 2.14 µM. Moreover, the TGI in [7] came to 8.08 µM; in assay [8] it was 3.56 µM; in assay [9], 11.1 µM; in assay [10], 22.6 µM.

For `CCC(C)CC(CC)NCCN1CCN(C(CC)CC(C)CC)C1=S` (stereo not drawn), the GI50 was 1.89 µM in assay [1]; 1.55 µM in [2]; 2.22 µM in assay [3]; 1.57 µM in [4]; 1.67 µM in assay [5]; 1.93 µM in assay [6]. Also, the GI50 in [7] is 2.05 µM; in [8], 1.6 µM; in assay [9], 1.83 µM; in assay [10], 1.8 µM. Moreover, the TGI stood at 3.41 µM in [1]; 2.88 µM in assay [2]; 5.19 µM in [3]; 2.9 µM in assay [4]; 3.1 µM in [5]; 3.77 µM in assay [6]. The TGI in assay [7] worked out at 6.87 µM; in assay [8], 2.95 µM; in assay [9], 3.3 µM; in assay [10], 3.66 µM.

Turning to `O=C1C=C(Nc2nc(C(=O)O)cc(=O)[nH]2)c2ccccc2C1=O`, the TGI in assay [1], in assay [2], in [3], in [4], in [5] and in assay [6] was more than 100 µM in each case. The TGI in assay [7], in assay [8], in [9] and in assay [10] was more than 100 µM throughout.

As for `COc1ccc(-c2nn(-c3cccc(NC(=O)Nc4cccc(C(F)(F)F)c4)c3)cc2-c2ccncc2)cc1Cl`, the GI50 is 2.37 µM in assay [1]; 1.06 µM in assay [2]; 1.76 µM in assay [3]; 5.32 µM in assay [4]; 2.24 µM in [5]; 1.95 µM in assay [6]. Also, the GI50 was 0.986 µM in [7], 1.69 µM in assay [8], 2.28 µM in [9] and 1.77 µM in assay [10]. Besides, the TGI in assay [1] is 5.23 µM; in assay [2] it was 3.98 µM; in assay [3], 8.38 µM; in assay [4], more than 100 µM; in assay [5], 49.1 µM; in assay [6] it was 6.26 µM. Also, the TGI was 8.54 µM in assay [7], 3.69 µM in [8], 10.1 µM in [9] and more than 100 µM in assay [10].

For the molecule `CN(C)CCCC(=O)Nc1ccc(Cn2nnc3c2C(=O)c2nnn(Cc4ccc(NC(=O)CCCN(C)C)cc4)c2C3=O)cc1`, the GI50 in [1] is 2.17 µM; in [2], 2.69 µM; in assay [3], 1.96 µM; in assay [4], 2.43 µM; in assay [5], 3.22 µM; in [6] it was 1.75 µM. Further, the GI50 is 4.75 µM in assay [7], 1.79 µM in [8], 18.2 µM in assay [9] and more than 100 µM in [10]. Further, the TGI in [1] was 4.64 µM; in assay [2], 6.62 µM; in assay [3], 5.2 µM; in assay [4], 5.22 µM; in assay [5], 7.87 µM; in assay [6], 5.17 µM. Further, the TGI in [7] was 43.4 µM; in assay [8], 3.52 µM; in assay [9] it was 44.2 µM; in assay [10], more than 100 µM.

In the case of `NCC(=O)CCC(=O)O`, the GI50 in assay [1], in assay [2], in assay [3], in [4], in assay [5] and in assay [6] was more than 100 µM in each case. In addition, the GI50 in assay [7], in assay [8], in assay [9] and in assay [10] was more than 100 µM in each case. The TGI in assay [1], in assay [2], in [3], in [4], in [5] and in [6] was more than 100 µM each time. In addition, the TGI in assay [7], in assay [8], in assay [9] and in assay [10] was more than 100 µM throughout.

Consider `COc1ccc(-c2c(C#N)c(N)nc3c2CCCc2ccc(F)cc2-3)cc1OC`, for which the GI50 was less than 0.01 µM in assay [1]; less than 0.0501 µM in assay [2]; less than 0.01 µM in [3]; 0.354 µM in [4]; 1.07 µM in [5]; less than 0.01 µM in [6]. Further, the GI50 was less than 0.0185 µM in assay [7], 4.89 µM in assay [8], 0.0964 µM in [9] and 0.0241 µM in [10]. Also, the TGI is more than 100 µM in assay [1]; more than 100 µM in assay [3]; 14.4 µM in assay [4]; more than 41.3 µM in assay [5]; more than 100 µM in assay [6]; more than 38.1 µM in assay [8]. Besides, the TGI was found to be 30.3 µM in assay [9] and 35.1 µM in assay [10].

Consider `CC1(C)CC[C@]2(C(=O)O)CC[C@]3(C)[C@H](CC[C@@H]4[C@@]5(C)CCC(=O)C(C)(C)[C@@H]5CC[C@]43C)[C@H]2[C@H]1OC(=O)C(F)(F)F`, for which the GI50 is 14.1 µM in [1]; 12.4 µM in assay [2]; 4.22 µM in [3]; 10.7 µM in assay [4]; 4.06 µM in assay [5]; 3.16 µM in assay [6]. Further, the GI50 in assay [7] is 3.98 µM; in assay [8], 6.58 µM; in assay [9] it was 14.3 µM; in [10], 12.8 µM. The TGI in assay [1] amounted to 30.9 µM; in assay [2] it was 26.2 µM; in assay [3] it was 22.5 µM; in [4] it was 22.8 µM; in assay [5] it was 16.7 µM; in assay [6], 13.6 µM. In addition, the TGI in assay [7] came to 17.9 µM; in assay [8], 23.6 µM; in assay [9], 29.5 µM; in [10] it was 25.7 µM.

(Values after PubChem BioAssay (NCI).)
